We go through twelve molecules from ChEMBL document CHEMBL1201862, “PubChem BioAssay data set” (2004).

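Briefly, cells in 96-well plates were exposed to five compound concentrations for 48 h, and endpoints were estimated by linear interpolation. GI50 marks 50% less growth.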 Activity calls are given as the source filed them. No stated cut-off is given here; in the data, active = GI50 up to about 1.1 µM and inactive = higher. Bounds are passed on as bounds.

Among the test systems are NCI-H460; SF-295; RXF 393; KM12; PC-3; K562; RPMI-8226; Hs-578T; COLO 205; HCT-15; NCI-H226; OVCAR-4; NCI/ADR-RES; A549; UACC-62; EKVX; IGROV-1; SF-539.
Experiment in all cases: inhibition of tumour cell growth, NCI panel, 48 h

As to `CC/C=C/C[C@H](O[Si](C)(C)C(C)(C)C)[C@H]1C[C@H]2O[C@H]([C@@H](O)C#C[Si](C)(C)C)C[C@H]2O1`, the GI50 with NCI-H460 is 15.8 µM (inactive); in the assay on SF-295, 14.3 µM (inactive); with RXF 393, 6.65 µM (inactive); with KM12, 17.9 µM (inactive); in the assay with PC-3, 12.9 µM (inactive); with K562, 13.9 µM (inactive). Further, the GI50 was 12.9 µM (inactive) in the assay with RPMI-8226; 15.3 µM (inactive) in the assay on Hs-578T; 13.5 µM (inactive) in the assay on COLO 205; 13.7 µM in the assay on HCT-15; 6.68 µM (inactive) in the assay on NCI-H226; 5.85 µM (inactive) with OVCAR-4. In addition, the GI50 with NCI/ADR-RES is 13.3 µM (inactive); in the assay on A549 it was 10.1 µM (inactive); in the assay on UACC-62, 17.7 µM (inactive); in the assay on EKVX, 12.9 µM (inactive); with IGROV-1 it was 14.3 µM (inactive).

With `COc1ccc(C2C=C(c3ccccc3)Nc3nnnn32)cc1` (stereo not given), the GI50 in the assay on NCI-H460 is 45 µM (inactive); with SF-295, 31 µM (inactive); with RXF 393, 20.3 µM (inactive); in the assay on KM12, 15.8 µM (inactive); with PC-3, 49 µM (inactive); with K562 it was 50.6 µM (inactive). Further, the GI50 with RPMI-8226 is 51.9 µM (inactive); in the assay on Hs-578T, 40.6 µM (inactive); with COLO 205, > 100 µM (inactive); in the assay with HCT-15, 31 µM; in the assay on NCI-H226, 64 µM (inactive); in the assay on NCI/ADR-RES, > 100 µM (inactive). In addition, the GI50 with A549 was 41.3 µM (inactive); with SF-539, 23.7 µM (inactive); in the assay on UACC-62 it was 50.4 µM (inactive); in the assay on IGROV-1, 82.8 µM (inactive).

For `CC(C)[Si]1(C(C)C)OCC2OC(n3ccc(=O)[nH]c3=O)C(O)(CO)C2O[Si](C(C)C)(C(C)C)O1` (stereo not given), the GI50 with SF-295 was 15 µM (inactive); with RXF 393 it was 15.6 µM (inactive); with KM12 it was 16.5 µM (inactive); in the assay on PC-3, 13 µM (inactive); with K562 it was 18.4 µM (inactive); in the assay with RPMI-8226 it was 9.82 µM (inactive). The GI50 was 3.31 µM (inactive) in the assay with Hs-578T; 17.6 µM (inactive) in the assay on COLO 205; 18.4 µM in the assay on HCT-15; 21.2 µM (inactive) in the assay on NCI-H226; 13.8 µM (inactive) in the assay on OVCAR-4; 16 µM (inactive) with NCI/ADR-RES. The GI50 in the assay with A549 is 14.4 µM (inactive); in the assay on SF-539 it was 17.7 µM (inactive); in the assay on UACC-62, 15.8 µM (inactive); with EKVX, 14.2 µM (inactive); with IGROV-1, 11.6 µM (inactive).

`CC(Cc1ccc2c(c1)OCO2)N(C)C(=O)C1=CCN(C)CC1` (stereo not given): the GI50 with NCI-H460, with SF-295, in the assay on RXF 393, in the assay with KM12, in the assay with PC-3 and in the assay on K562 was > 100 µM (inactive) each time. Moreover, the GI50 in the assay on RPMI-8226 was > 100 µM (inactive); in the assay on Hs-578T it was > 100 µM (inactive); with COLO 205, > 100 µM (inactive); in the assay with HCT-15 it was above 100 µM; in the assay on NCI-H226 it was > 100 µM (inactive); with OVCAR-4, > 100 µM (inactive). Further, the GI50 with NCI/ADR-RES, in the assay on A549, with UACC-62, in the assay with EKVX and in the assay on IGROV-1 was > 100 µM (inactive) throughout.

With `C/C(=N\Nc1nc2ccccc2s1)c1ncccn1`, the GI50 was 0.04 µM (active) with NCI-H460; 0.11 µM (active) in the assay on SF-295; 1.04 µM (active) in the assay on RXF 393; 0.128 µM (active) in the assay on KM12; 0.118 µM (active) in the assay with PC-3; < 0.0501 µM (active) in the assay with K562. For the same molecule, the GI50 was 0.0775 µM (active) in the assay on RPMI-8226; 0.59 µM (active) in the assay with Hs-578T; < 0.01 µM (active) in the assay with COLO 205; 0.0215 µM in the assay with HCT-15; < 0.0185 µM (active) with NCI-H226; 0.0172 µM (active) in the assay on NCI/ADR-RES. The GI50 was 0.141 µM (active) in the assay with A549; 0.0757 µM (active) with SF-539; 0.101 µM (active) with UACC-62; < 0.0111 µM (active) in the assay on EKVX; 0.0183 µM (active) with IGROV-1.

Turning to `COC1/C=C(C)/C=C/C(C)/C=C/C(=O)OC(/C(C)=C/C=C(\C)CNC(=O)[C@H](CO)NC=O)C(C)/C=C/C=C/C(OC)CC/C=C(C)/C=C/C1` (stereo not given in full), the GI50 with NCI-H460 is 0.0316 µM (active); in the assay on SF-295 it was 0.0229 µM (active); in the assay with RXF 393, 0.158 µM (active); with KM12 it was 0.0195 µM (active); in the assay on PC-3 it was 0.0264 µM (active); with K562, 0.0192 µM (active). For the same molecule, the GI50 with RPMI-8226 was 0.0215 µM (active); in the assay on Hs-578T, > 0.214 µM (active); in the assay on HCT-15 it was 0.111 µM; in the assay on OVCAR-4, 0.491 µM (active); with NCI/ADR-RES it was 0.407 µM (active); with A549 it was 0.0307 µM (active). In addition, the GI50 in the assay on SF-539 was 0.0281 µM (active); in the assay on UACC-62 it was 0.0251 µM (active); in the assay with EKVX, 0.139 µM (active); in the assay with IGROV-1, 0.262 µM (active).

In the case of `COc1cc(/N=C\N(C)C)c2ncccc2c1`, the GI50 in the assay on SF-295 was 93.3 µM (inactive); with RXF 393, 75.3 µM (inactive); in the assay with PC-3 it was 90.6 µM (inactive); in the assay on K562, 15.8 µM (inactive); with RPMI-8226 it was 46.5 µM (inactive); with Hs-578T, 98.4 µM (inactive). Besides, the GI50 with COLO 205 was > 100 µM (inactive); in the assay with HCT-15, 38.1 µM; in the assay on NCI-H226, 49.4 µM (inactive); with OVCAR-4, > 100 µM (inactive); in the assay on NCI/ADR-RES, 45.4 µM (inactive); with A549 it was 79.6 µM (inactive). Also, the GI50 in the assay with SF-539 is 33.5 µM (inactive); in the assay on UACC-62, 54.1 µM (inactive); in the assay on EKVX, > 100 µM (inactive); in the assay with IGROV-1, 33.9 µM (inactive).

With `Cc1cc(C)c2c(=O)n(CN3CCN(c4ccccc4)CC3)sc2n1`, the GI50 with NCI-H460 was 67.9 µM (inactive); in the assay with SF-295, > 100 µM (inactive); in the assay with RXF 393, 12.6 µM (inactive); in the assay on KM12, > 100 µM (inactive); in the assay on PC-3, 19.4 µM (inactive); in the assay with K562 it was 30 µM (inactive). Also, the GI50 in the assay on Hs-578T is 70.1 µM (inactive); in the assay on COLO 205, 19.5 µM (inactive); in the assay on HCT-15 it was 22.5 µM; with NCI-H226 it was > 100 µM (inactive); with OVCAR-4 it was 54 µM (inactive); with NCI/ADR-RES it was 24.2 µM (inactive). The GI50 in the assay with A549 was 33.8 µM (inactive); in the assay with SF-539 it was 18.6 µM (inactive); in the assay with UACC-62, 53.2 µM (inactive); in the assay with EKVX, 29.8 µM (inactive); in the assay on IGROV-1 it was > 100 µM (inactive).

On to `COc1ccc2cc(CNCCCCCCNCc3ccc4cc(OC)ccc4c3)ccc2c1`, for which the GI50 in the assay with NCI-H460 is 0.255 µM (active); with SF-295, 0.486 µM (active); in the assay with RXF 393, 1.52 µM (inactive); in the assay with KM12 it was 0.221 µM (active); in the assay on PC-3 it was 0.471 µM (active); in the assay with K562, 0.0897 µM (active). Besides, the GI50 was 0.208 µM (active) with RPMI-8226; 1.75 µM (inactive) in the assay with Hs-578T; 0.154 µM (active) in the assay with COLO 205; 0.406 µM in the assay with HCT-15; 1.8 µM (inactive) in the assay on NCI-H226; 1.44 µM (inactive) in the assay on NCI/ADR-RES. The GI50 with A549 is 1.86 µM (inactive); in the assay on SF-539 it was 1.51 µM (inactive); with UACC-62 it was 1.46 µM (inactive); with EKVX, 1.39 µM (inactive); with IGROV-1, 1.57 µM (inactive).

For `N#CC(C#N)=C1C(C#N)=C(N)NC12OCCO2`, the GI50 with NCI-H460, in the assay on SF-295, in the assay with RXF 393, with KM12, with PC-3 and in the assay with K562 was > 100 µM (inactive) in each case. The GI50 in the assay with RPMI-8226 is > 100 µM (inactive); in the assay with Hs-578T it was > 100 µM (inactive); in the assay with COLO 205, > 100 µM (inactive); in the assay on HCT-15 it was above 100 µM; in the assay on NCI-H226 it was > 100 µM (inactive); with OVCAR-4, > 100 µM (inactive). Besides, the GI50 with NCI/ADR-RES, in the assay with A549, with UACC-62, in the assay with EKVX and with IGROV-1 was > 100 µM (inactive) in each case.

Turning to `c1ccc2[nH]c3[nH]c4[nH]c5ccccc5[nH]c4[nH]c3[nH]c2c1`, the GI50 in the assay with NCI-H460 was > 100 µM (inactive); in the assay on SF-295, 66.2 µM (inactive); in the assay on RXF 393, > 100 µM (inactive); in the assay with KM12, > 100 µM (inactive); with PC-3, > 100 µM (inactive); in the assay on K562 it was > 100 µM (inactive). Further, the GI50 with RPMI-8226 is > 100 µM (inactive); in the assay on Hs-578T, 60.7 µM (inactive); in the assay with COLO 205, > 100 µM (inactive); with HCT-15 it was above 100 µM; in the assay on NCI-H226, > 100 µM (inactive); in the assay on NCI/ADR-RES it was > 100 µM (inactive). Besides, the GI50 with A549, in the assay on SF-539, with UACC-62, in the assay with EKVX and in the assay on IGROV-1 was > 100 µM (inactive) each time.

As for `CC(C)N(C(=O)C12C3(C(=O)OC(C)(C)C)C4C5(C#N)C3C1(C(=O)OC(C)(C)C)C5C42C(=O)OC(C)(C)C)C(C)C` (stereo not given), the GI50 in the assay on NCI-H460 was 75.7 µM (inactive); with SF-295, 58.2 µM (inactive); in the assay on RXF 393 it was 12.9 µM (inactive); with KM12, > 100 µM (inactive); with PC-3 it was 51.1 µM (inactive); in the assay with K562 it was 34.6 µM (inactive). Further, the GI50 is 28.7 µM (inactive) in the assay with Hs-578T; 21.5 µM (inactive) in the assay on COLO 205; 89.5 µM in the assay on HCT-15; 71.6 µM (inactive) with OVCAR-4; 76.4 µM (inactive) with NCI/ADR-RES; 93.5 µM (inactive) with A549. Also, the GI50 was > 100 µM (inactive) in the assay with SF-539, 40.6 µM (inactive) with UACC-62, 53 µM (inactive) in the assay with EKVX and > 100 µM (inactive) in the assay with IGROV-1.
